In patent publication US7491794B2, “Macrocyclic compounds as inhibitors of viral replication” (Intermune, Inc., priority 2003, dated 2009):
pIC50: −log10 of the molar value. Structures can show the parent of a compound that is named as a salt.

Molecular target: T1, NS3-NS4A protease (Hepatitis C virus genotype 1a, UniProt P27958)
T1 construct: Recombinant E. coli or Baculovirus full-length NS3 was diluted to 3.33 μM with assay buffer; made in house; host or cells: E. coli or baculovirus (BV) system
Assay: NS3-NS4A protease assay (NS3 inhibition assay, RETS1 substrate), Section B
Type: biochemical
Settings: read-out: NS3-NS4A IC50
Description: NS3 complex formation with NS4A-2
Recombinant E. coli or Baculovirus full-length NS3 was diluted to 3.33 μM with assay buffer and the material transferred to an eppendorf tube and place in water bath in 4° C. refrigerator. The appropriate amount of NS4A-2 to 8.3 mM in assay buffer was added to equal the volume of NS3 in step 2.1.1 (conversion factor −3.8 mg/272 μL assay buffer). The material was transferred to an eppendorf tube and placed in a water bath in a 4° C. refrigerator.
After equilibration to 4° C., equal volumes of NS3 and NS4A-2 solutions were combined in an eppendorf tube, mixed gently with a manual pipettor, and the mixture incubated for 15 minutes in the 4° C. water bath. Final concentrations in the mixture were 1.67 μM NS3, 4.15 mM NS4A-2 (2485-fold molar excess NS4A-2).
After 15 minutes at 4° C., the NS3/NS4A-2 eppendorf tube was removed and placed in a room temperature water bath for 10 minutes. NS3/NS4A-2 was aliquoted at appropriate volumes and store at −80° C. (E. coli NS3 run at 2 nM in assay, aliquot at 25 μL. BV NS3 run at 3 nM in assay, aliquot at 30 μL.
Step 2.2.5. Sample compounds were dissolved to 10 mM in DMSO then diluted to 2.5 mM (1:4) in DMSO.
Step 2.2.6. The E. coli NS3/NS4A-2 was diluted to 4 nM NS3 (1:417.5 of 1.67 μM stock−18 μL 1.67 μM stock+7497 μL assay buffer).
The BV NS3/NS4A-2 was diluted to 6 nM NS3 (1:278.3 of 1.67 μM stock−24 μL 1.67 μM stock+6655 μL assay buffer).
Step 2.2.7. Using the manual multichannel pipettor, and being careful not to introduce bubbles into the plate, 50 μL assay buffer was added to wells A01-H01 of a black Costar 96-well polypropylene storage plate.
Step 2.2.8. Using the manual multichannel pipettor, and being careful not to introduce bubbles into the plate, 50 μL of diluted NS3/NS4A-2 from step 2.2.6 was added to wells A02-H12 of plate in step 2.2.7.
Step 2.2.9. Using the manual multichannel pipettor, and being careful not to introduce bubbles into the plate, 25 μL of the wells in drug dilution plate in step 2.2.5 were transferred to corresponding wells in assay plate in step 2.2.8. The tips on multichannel pipettor were changed for each row of compounds transferred.
Step 2.2.10. Using the manual multichannel pipettor, and being careful not to introduce bubbles into the plate, the wells from the assay plate in step 2.2.9 were mixed by aspirating and dispensing 35 μL of the 75 μL in each well five times. The tips on multichannel pipettor were changed for each row of wells mixed.
Step 2.2.11. The plate was covered with a polystyrene plate lid, and the plate from step 2.2.10 containing NS3 protease and sample compounds was pre-incubated 10 minutes at room temperature.
While the plate from step 2.2.11 was pre-incubating, the RETS1 substrate was diluted in a 15 mL polypropylene centrifuge tube. The RETS1 substrate was diluted to 8 μM (1:80.75 of 646 μM stock−65 μL 646 μM stock+5184 μL assay buffer).
After the plate in step 2.2.11 was done pre-incubating, and using the manual multichannel, 25 μL of substrate was added to all wells on the plate. The contents of the wells were quickly mixed, as in step 2.2.10, but mixing 65 μL of the 100 μL in the wells.
The plate was read in kinetic mode on the Molecular Devices SpectraMax Gemini XS plate reader. Reader settings: Read time: 30 minutes, Interval: 36 seconds, Reads: 51, Excitation λ: 335 nm, Emission λ: 495 nm, cutoff: 475 nm, Automix: off, Calibrate: once, PMT: high, Reads/well: 6, Vmax pts: 21 or 28/51 depending on length of linearity of reaction.
IC50s were determined using a four parameter curve fit equation, and converted to Ki's using the following Km's:
where Ki=IC50/(1+[S]/Km))

T1 sequence (P27958 1027-1657): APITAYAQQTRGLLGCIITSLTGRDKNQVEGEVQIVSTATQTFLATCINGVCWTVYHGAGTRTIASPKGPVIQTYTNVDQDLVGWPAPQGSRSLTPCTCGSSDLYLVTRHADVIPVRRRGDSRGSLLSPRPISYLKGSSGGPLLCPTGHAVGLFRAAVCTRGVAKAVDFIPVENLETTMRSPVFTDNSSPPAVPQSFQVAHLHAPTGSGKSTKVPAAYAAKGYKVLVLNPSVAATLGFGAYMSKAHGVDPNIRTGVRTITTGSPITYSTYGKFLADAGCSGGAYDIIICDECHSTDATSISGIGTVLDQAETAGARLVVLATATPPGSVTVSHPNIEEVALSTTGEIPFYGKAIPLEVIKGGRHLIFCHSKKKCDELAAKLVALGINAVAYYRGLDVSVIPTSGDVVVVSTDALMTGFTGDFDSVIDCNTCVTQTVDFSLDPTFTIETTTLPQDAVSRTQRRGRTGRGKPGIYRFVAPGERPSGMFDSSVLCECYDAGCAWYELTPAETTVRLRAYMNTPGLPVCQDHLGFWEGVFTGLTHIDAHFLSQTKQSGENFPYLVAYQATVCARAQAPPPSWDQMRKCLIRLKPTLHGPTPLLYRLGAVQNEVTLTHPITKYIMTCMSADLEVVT

Structure (SMILES) | pIC50
CC(C)(C)C(=O)N[C@H]1CCCCC/C=C\[C@@H]2C[C@@]2(C(=O)O)NC(=O)[C@@H]2C[C@@H](OC(=O)N3CCc4ccccc4C3)CN2C1=O [AR00248687, (1S,4R,6S,14S,18R)-18-(3,4-Dihydro-1H-isoquinoline-2-carbonyloxy)-14-(2,2-dimethyl-propionylamino)-2,15-dioxo-3,16-diaza-tricyclo[14.3.0.0^4,6]nonadec-7-ene-4-carboxylic acid] | > 6.00
CC(C)NCCOc1ccc2c(c1)CN(C(=O)O[C@@H]1C[C@H]3C(=O)N[C@]4(C(=O)O)C[C@H]4/C=C\CCCCC[C@H](NC(=O)OC(C)(C)C)C(=O)N3C1)C2 [AR00371948, (1S,4R,6S,14S,18R)-14-tert-Butoxycarbonylamino-18-[5-(2-isopropylamino-ethoxy)-1,3-dihydro-isoindole-2-carbonyloxy]-2,15-dioxo-3,16-diaza-tricyclo[14.3.0.0^4,6]nonadec-7-ene-4-carboxylic acid] | > 7.00
CC(C)(C)OC(=O)N[C@H]1CCCCC/C=C\[C@@H]2C[C@@]2(C(=O)O)NC(=O)[C@@H]2C[C@@H](OC(=O)N3CCc4cc(C(F)(F)F)ccc4C3)CN2C1=O [AR00294383, (1S,4R,6S,14S,18R)-14-tert-Butoxycarbonylamino-2,15-dioxo-18-(6-trifluoromethyl-3,4-dihydro-1H-isoquinoline-2-carbonyloxy)-3,16-diaza-tricyclo[14.3.0.0^4,6]nonadec-7-ene-4-carboxylic acid] | > 5.00
CC(C)(C)OC(=O)N[C@H]1CCCCC/C=C\[C@@H]2C[C@@]2(C(=O)O)NC(=O)[C@@H]2C[C@@H](OC(=O)N3CCc4ccccc4C3CN3CCOCC3)CN2C1=O (stereo partly drawn) [AR00333225, (1S,4R,6S,14S,18R)-14-tert-Butoxycarbonylamino-18-(1-morpholin-4-ylmethyl-3,4-dihydro-1H-isoquinoline-2-carbonyloxy)-2,15-dioxo-3,16-diaza-tricyclo[14.3.0.0^4,6]nonadec-7-ene-4-carboxylic acid] | > 5.00
N[C@H]1CCCCC/C=C\[C@@H]2C[C@@]2(C(=O)NS(=O)(=O)C2CC2)NC(=O)[C@@H]2C[C@@H](OC(=O)N3Cc4cccc(F)c4C3)CN2C1=O [AR00424874, (1S,4R,6S,14S,18R)-4-Fluoro-1,3-dihydro-isoindole-2-carboxylic acid 14-amino-4-cyclopropanesulfonylaminocarbonyl-2,15-dioxo-3,16-diaza-tricyclo[14.3.0.0^4,6]nonadec-7-en-18-yl ester, HC1 salt] | > 7.00
Cc1nc2c(s1)CN(C(=O)O[C@@H]1C[C@H]3C(=O)N[C@]4(C(=O)O)C[C@H]4/C=C\CCCCC[C@H](NC(=O)OC(C)(C)C)C(=O)N3C1)CC2 [AR00304158, (1S,4R,6S,14S,18R)-14-tert-Butoxycarbonylamino-18-(2-methyl-6,7-dihydro-4H-thiazolo[5,4-c]pyridine-5-carbonyloxy)-2,15-dioxo-3,16-diaza-tricyclo[14.3.0.0^4,6]nonadec-7-ene-4-carboxylic acid] | > 4.30
CC(C)(C)OC(=O)N[C@H]1CCCCC/C=C\[C@@H]2C[C@@]2(C(=O)NS(=O)(=O)c2cc(C(=O)O)ccc2Cl)NC(=O)[C@@H]2C[C@@H](OC(=O)N3Cc4ccccc4C3)CN2C1=O [AR00365388, (1S,4R,6S,14S,18R)-1,3-Dihydro-isoindole-2-carboxylic acid 14-tert-butoxycarbonylamino-4-(5-carboxy-2-chloro-benzenesulfonylaminocarbonyl)-2,15-dioxo-3,16-diaza-tricyclo[14.3.0.0^4,6]nonadec-7-en-18-yl ester] | > 7.00
CC(C)(C)OC(=O)N[C@H]1CCCCC/C=C\[C@@H]2C[C@@]2(C(=O)O)NC(=O)[C@@H]2C[C@@H](NC(=O)N3CCc4ccccc4C3)CN2C1=O [AR00287262, (1S,4R,6S,14S,18R)-14-tert-butoxycarbonylamino-18-[(3,4-dihydro-1H-isoquinoline-2-carbonyl)-amino]-2,15-dioxo-3,16-diaza-tricyclo[14.3.0.0^4,6]nonadec-7-ene-4-carboxylic acid] | > 5.00
COc1ccc2c(c1)CCN(C(=O)O[C@@H]1C[C@H]3C(=O)N[C@]4(C(=O)O)C[C@H]4/C=C\CCCCC[C@H](NC(=O)OC(C)(C)C)C(=O)N3C1)C2CN1CCCCC1 (stereo partly drawn) [AR00333248, (1S,4R,6S,14S,18R)-14-tert-Butoxycarbonylamino-18-(6-methoxy-1-piperidin-1-ylmethyl-3,4-dihydro-1H-isoquinoline-2-carbonyloxy)-2,15-dioxo-3,16-diaza-tricyclo[14.3.0.0^4,6]nonadec-7-ene-4-carboxylic acid] | > 5.00
CC(C)(C)OC(=O)N[C@H]1CCCCC/C=C\[C@@H]2C[C@@]2(C(=O)O)NC(=O)[C@@H]2C[C@@H](OC(=O)N3Cc4ccc(OCCN5CCOCC5)cc4C3)CN2C1=O [AR00371946, (1S,4R,6S,14S,18R)-14-tert-Butoxycarbonylamino-18-[5-(2-morpholin-4-yl-ethoxy)-1,3-dihydro-isoindole-2-carbonyloxy]-2,15-dioxo-3,16-diaza-tricyclo[14.3.0.0^4,6]nonadec-7-ene-4-carboxylic acid] | > 7.00
CC(C)(C)OC(=O)N[C@H]1CCCCC/C=C\[C@H]2C[C@]2(C(=O)O)NC(=O)[C@@H]2C[C@@H](OC(=O)N3CCc4ccccc4C3)CN2C1=O [AR00220122, (1S,4S,6R,14S,18R)-14-tert-Butoxycarbonylamino-18-(3,4-dihydro-1H-isoquinoline-2-carbonyloxy)-2,15-dioxo-3,16-diaza-tricyclo[14.3.0.0^4,6]nonadec-7-ene-4-carboxylic acid] | > 4.30
O=C(N[C@H]1CCCCC/C=C\[C@@H]2C[C@@]2(C(=O)O)NC(=O)[C@@H]2C[C@@H](OC(=O)N3CCc4ccccc4C3)CN2C1=O)C1CCCC1 [AR00248689, (1S,4R,6S,14S,18R)-14-(Cyclopentanecarbonyl-amino)-18-(3,4-dihydro-1H-isoquinoline-2-carbonyloxy)-2,15-dioxo-3,16-diaza-tricyclo[14.3.0.0^4,6]nonadec-7-ene-4-carboxylic acid] | > 6.00
COc1ccc2c(c1)CCN(C(=O)O[C@@H]1C[C@H]3C(=O)N[C@]4(C(=O)O)C[C@H]4/C=C\CCCCC[C@H](NC(=O)OC(C)(C)C)C(=O)N3C1)C2CN1CCOCC1 (stereo partly drawn) [AR00333276, (1S,4R,6S,14S,18R)-14-tert-Butoxycarbonylamino-18-(6-methoxy-1-morpholin-4-ylmethyl-3,4-dihydro-1H-isoquinoline-2-carbonyloxy)-2,15-dioxo-3,16-diaza-tricyclo[14.3.0.0^4,6]nonadec-7-ene-4-carboxylic acid] | > 5.00
O=C(NC1CCOC1)N[C@H]1CCCCC/C=C\[C@@H]2C[C@@]2(C(=O)O)NC(=O)[C@@H]2C[C@@H](OC(=O)N3CCc4ccccc4C3)CN2C1=O (stereo partly drawn) [AR00320221, (1S,4R,6S,14S,18R)-18-(3,4-Dihydro-1H-isoquinoline-2-carbonyloxy)-2,15-dioxo-14-[3-(tetrahydro-furan-3-yl)-ureido]-3,16-diaza-tricyclo[14.3.0.0^4,6]nonadec-7-ene-4-carboxylic acid] | > 6.00
CC(C)(C)OC(=O)N[C@H]1CCCCC/C=C\[C@@H]2C[C@@]2(C(=O)O)NC(=O)[C@@H]2C[C@@H](OC(=O)N3CCc4c([nH]c5ccccc45)C3)CN2C1=O [AR00226825, (1S,4R,6S,14S,18R)-14-tert-Butoxycarbonylamino-2,15-dioxo-18-(1,3,4,9-tetrahydro-b-carboline-2-carbonyloxy)-3,16-diaza-tricyclo[14.3.0.0^4,6]nonadec-7-ene-4-carboxylic acid] | > 5.00
